What was measured:
mice = test: Writhing Assay (PBQ-induced writhing, analgesic activity in mice); format: in vivo, mouse (Charles River male albino mice); conditions: among compounds of the invention tested
Source text: The Writhing Assay is one of the most widely-used experimental procedures for measuring the analgesic activity of different narcotic and nonnarcotic analgesic agents, and involves the continuous, chemically-induced pain of visceral origin to an animal, such as a mouse or rat. [Gyires et al., Arch. int. […] Drugs which reduce the number of writhes of the animal appear to restore the normal nociceptive threshold of the animal. […] Charles River male albino mice, weighing 20 to 30 grams, were used in this assay. […] Ten mice which were given saline in place of a test compound of the invention were used as a control group. Five minutes later, each mouse was individually placed into a glass beaker for observation, and the number of writhes occurring during the following ten-minute period was counted. […] The standard initial screening dose of a test compound employed in this assay was 30 mpk […].

[1] = biological target: T1, prostaglandin E2 -induced contractions of segments of guinea pig ileum (Cavia porcellus, UniProt A0A286XHJ6); test: Prostaglandin (PGE) Antagonism Assay (prostaglandin E2-induced contractions of guinea pig ileum segments); conditions: initial test compound concentration 3 micromolar
T1 construct: Segments of ileum about 2 cm long were then cut and mounted in a 10 mL tissue bath; from tissue; host or cells: ileum segments of male albino guinea pigs
T1 sequence (A0A286XHJ6 1-405): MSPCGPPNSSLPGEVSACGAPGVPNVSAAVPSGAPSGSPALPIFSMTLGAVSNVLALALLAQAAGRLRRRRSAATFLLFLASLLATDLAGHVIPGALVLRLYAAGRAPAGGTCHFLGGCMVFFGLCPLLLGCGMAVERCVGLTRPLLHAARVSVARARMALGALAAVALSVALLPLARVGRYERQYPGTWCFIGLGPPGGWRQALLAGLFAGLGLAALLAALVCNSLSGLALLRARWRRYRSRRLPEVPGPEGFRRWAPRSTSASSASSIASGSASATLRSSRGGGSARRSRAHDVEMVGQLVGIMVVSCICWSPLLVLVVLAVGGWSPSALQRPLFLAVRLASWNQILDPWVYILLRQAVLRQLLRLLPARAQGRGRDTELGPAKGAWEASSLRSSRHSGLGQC
Source text: The ilea were then quickly removed from the guinea pigs and placed in a modified Tyrode solution, a solution which is known to those skilled in the art, containing one-half of the usual amount of magnesium ions. […] Data for a control prostaglandin E2 dose response curve plotting concentration of prostaglandin E2 versus the intensity of contractions, detected isotonically, was then obtained by experimentally adjusting the dose of the prostaglandin E2 being injected into the tissue bath, in a manner known by those of skill in the art. Solutions or suspensions containing an initial concentration (3 micromolar) of a test compound in modified Tyrode solution ("test solutions/suspensions") were then separately substituted for the control bath solution. Each test solution/suspension was then kept in constant contact with the ileum tissue, except for brief periods to drain the bath in preparation for rinsing with fresh test solution/suspension. A second prostaglandin E2 dose response curve was then generated for prostaglandin E2 in the presence of a test compound.

COC(=O)[C@H](C)NC(=O)N1Cc2ccccc2Oc2ccc(Cl)cc21 [Example 32, methyl (L)-2R-[[(8-chlorodibenz[b,f][1,4]oxazepine-10-(11H)-yl)carbonyl]amino]propanoate]
potency ranking in the Writhing Assay (in words) (mice): most potent compound of the invention tested in this assay

CCN(CC)CCCCCOC(=O)N1Cc2ccccc2Oc2ccc(Cl)cc21 [Example 29, 5-(diethylamino)pentyl 8-chlorodibenz[b,f]-[1,4]oxazepine-10(11H)-carboxylate]
PGE IN GUINEA PIG ILEUM, dose ratio given as activity word [1]: Active

From patent US5661146A, “Substituted dibenzoxazepine urea compounds, pharmaceutical compositions and methods of use” (G.D. Searle & Co., priority 1995, dated 1997)
